From US5461057A, “Hydro-ethano-indeno-pyridines” (priority 1994, dated 1995)

What was measured:
[1] = system: LOX human melanoma cell adhesion to human fibronectin; test: LOX melanoma cell adhesion to fibronectin; format: cell-based; conditions: Homo sapiens, LOX; for inhibition at 10 µM: read-out: % Inhibition at 10 μM; for inhibition at 50 µM: read-out: % Inhibition at 50 μM; for IC50: Table 4, 1 hour adhesion, read-out: LOX FN IC50
Experimental: (§1) Adhesion assays were run essentially as described previously (Pai et al., J. Biomed. Res. 2: 53, 1992). 96-well plates were coated with human fibronectin (140 ng/well), human vitronectin (75 ng/well), human collagen I (100 ng/well), human collagen IV (100 ng/well), human fibrinogen (1 μg/well), murine laminin (600 ng/well), or polylysine, and incubated overnight in a humidified 37° C. incubator. Excess fibronectin or other substrate was then removed and 0.2 ml of 2 mg/ml bovine serum albumin (BSA)in Dulbecco's phosphate-buffered saline (DPBS) was added to each well, incubated for 2 hours at 37° C., and removed. LOX human melanoma cells, M27 murine lung carcinoma cells or B16F10 mouse melanoma cells were detached from tissue culture flasks with RPMI medium containing 0.2M urea and 10 mM EDTA, and 0.18 ml of cells were added to each well to a final cell concentration of 1×10^5 cells/well. For inhibition studies 20 μl of 10× compound was added to the wells prior to cell addition. Cells were allowed to adhere for 1 hour at 37° C. The wells were then gently washed twice with 0.2 ml DPBS. The fluorescent dye calcein AM (Molecular Probes, Eugene Oreg.) in DPBS (0.1 ml of 1 μM) was added to each well, and the plates were incubated for 1 hour at room temperature. Adherent cells were quantitated by reading the fluorescence on a Cytofluor 2300 fluorescent plate reader (Millipore) at 485 nm excitation and 530 nm emission.
LOX FN-IC50 value for inhibition of adhesion of LOX human melanoma cells to fibronectin coated on a plastic surface.

[2] = Calcein cytotoxicity assay; format: cell-based; conditions: human, lox melanoma cells; 2 hours, calcein AM assay; read-out: 2 Hr Tox LD50
Experimental: LOX human melanoma cells were detached from tissue culture flasks with RPMI medium containing 0.2M urea and 10 mM EDTA, and 0.18 ml of cells were added to each well to a final cell concentration of 5×10^4 cells/well. 20 μl of 10× compound was added to the wells prior to cell addition. Cells were incubated with the compound at 37° C. for 1 hour or 5 hour as indicated. Calcein AM in DPBS (0.02 ml of 5 μM) was added to each well, and the plates were incubated for an additional 1 hour at room temperature. Viable cells were quantitated by reading the fluorescence on a Cytofluor 2300 fluorescent plate reader at 485 nm excitation and 530 nm emission.

[3] = system: LOX human melanoma cell adhesion to polylysine; test: LOX melanoma cell adhesion to polylysine; format: cell-based; conditions: read-out: Poly Lys IC50
Experimental: as §1

[4] = system: histamine-induced dyspnea; test: Bronchodilator (in vivo) Guinea Pig Dyspnea; conditions: oral, one hour before histamine challenge; for responders at 100 mg/kg / responders at 50 mg/kg: Cavia porcellus, 1 h, read-out: DYSP survivors (converted)
Experimental: Unanesthetized guinea pigs (250-350 g), fasted overnight were placed in individual closed aerosol chambers which were connected to a Monoghan Ultrasonic nebulizer. The nebulizer can deliver an ultrasonic fog of uniform particles in a range of 1-8 microns. A 0.1% solution of histamine is aerosolized into the chambers causing the guinea pigs to develop dyspnea. The test drug was given orally one hour before the histamine challenge and the onset of dyspnea was recorded. Saline control animals developed dyspnea within 90-120 seconds of aerosol exposure. […] The data was expressed as the number tested over the number survived. The model was sensitive to bronchodilator and H1 antihistamine activity. Further information relating this test can be obtained from the following two publications which are hereby incorporated by reference: Dungan, K. W. and Lish, P. M. J Allergy 32:139-151 (1961). and Lish, P. M., Robbins, S. I. and Petres E. L. J. Pharmacol. Exp. Therap. 153 L 1538 (1966 ).

pulmonary resistance = test: Pulmonary Resistance in the Anesthetized Rat; format: in vivo; conditions: 0.5 mpk, i.v., mean of 5 animals, % decrease in pre-drug baseline resistance
Experimental: Rats (400-500 g) anesthetized with dialurethane were surgically prepared with tracheal and esophageal catheters. These catheters were connected to pressure transducers for recording of air flow, tracheal and esophageal pressures. These pressures formed the basis for measurement of pulmonary resistance. Inhibition of pulmonary resistance is a reflection of bronchodilation.
All compounds were tested i. v. in 5 separate animals. All data are expressed in % decrease in the pre-drug baseline resistance and each number given is the mean of the 5 animals tested.
The model is sensitive to bronchodilator activity.
Further information relating this test can be obtained from the following publications which are hereby incorporated by reference: Comroe et al, J. Appl. Physio. 4:439-44 (1959); Dungan et al J. Pharmacol. Exp. Therap. 164:290-301(1968); and Mead, J. et al. J. Appl. Physio. 5:779-796 (1953).

Row | SMILES | inhibition at 10 µM [1] | inhibition at 50 µM [1] | IC50 [1] | CC50 at 2 h [2] | IC50 [3] | DYSP survivors ([4]; 100 mg/kg) | responders at 100 mg/kg ([4]; 100 mg/kg) | Pulmonary Resistance in Rats, % Inhibition (pulmonary resistance) | DYSP survivors ([4]; 50 mg/kg) | responders at 50 mg/kg ([4]; 50 mg/kg) | inhibition in vivo at 0.5 mg/kg (pulmonary resistance; Rattus norvegicus, iv, read-out: Pulmonary Resistance in Rats, % Inhibition)
1 | CN1C2CCC1C1c3cc(Cl)ccc3C(O)(c3ccc(F)cc3)C1C2 (centres unmarked) [LL] | -12.2% | 26.6% | – | – | – | – | – | – | – | – | –
2 | CN1C2CCC1C1C(=C(c3ccccc3)c3ccc(F)cc31)C2 (centres unmarked) [M] | 18.4% | 99.6% | 12.5 µM | 39.8 µM | 72.7 µM | 0/3 | – | – | – | – | –
3 | COc1ccc(C2(O)c3c(Cl)cccc3C3C4CCC(CC32)N4C)cc1 (centres unmarked) [BBB] | -11.8% | 5.6% | – | – | – | – | 33.3% | – | – | – | –
4 | CN1C2CCC1C1C(=C(c3cccc(F)c3)c3ccc(F)cc31)C2 (centres unmarked) [P] | -2.4% | 99.8% | 11.7 µM | 64.3 µM | 297 µM | – | – | 12% | 0/3 | – | –
5 | CN1C2CCC1C1C(=C(c3ccc(F)cc3)c3cc(F)ccc31)C2 (centres unmarked) [Compound H] | 37.5% | 101% | 6.5 µM | 36.9 µM | 23.7 µM | 1/3 | – | 20% | – | – | –
6 | CN1C2CCC1C1c3cc(Cl)ccc3C(O)(c3ccccc3)C1C2 (centres unmarked) [VV] | 0.9% | 15.9% | – | – | – | – | 100% | – | – | – | –
7 | CN1C2CCC1C1C(=C(c3cccc(F)c3)c3ccccc31)C2 (centres unmarked) [O] | 5.2% | 97.1% | 11.2 µM | 72 µM | 130 µM | 0/3 | – | – | – | – | –
8 | CN1C2CCC1C1c3ccc(Cl)cc3C(O)(c3ccccc3)C1C2 (centres unmarked) [YY] | -14.6% | 7.4% | – | – | – | – | 66.7% | – | – | 100% | –
9 | CN1C2CCC1C1C(=C(c3ccc(F)cc3)c3cc(Cl)ccc31)C2 (centres unmarked) [Compound E] | 49.5% | 100% | 6.2 µM | 21.8 µM | 46.2 µM | 0/3 | – | – | – | – | –
10 | COc1ccc(C2(O)c3cc(F)ccc3C3C4CCC(CC32)N4C)cc1 (centres unmarked) [CCC] | – | – | – | – | – | – | 66.7% | – | – | – | –
11 | CN1C2CCC1C1c3ccc(Cl)cc3C(O)(c3ccc(F)cc3)C1C2 (centres unmarked) [II] | 5.4% | 34.8% | – | – | – | – | 100% | – | – | – | –
12 | CN1C2CCC1C1C(=C(c3ccc(Cl)c(C(F)(F)F)c3)c3ccccc31)C2 (centres unmarked) [Compound N] | 7% | 101% | 19.4 µM | 23.8 µM | 25.3 µM | 0/3 | – | 33% | – | – | –
13 | CN1C2CCC1C1c3ccccc3C(O)(c3ccc(Cl)cc3)C1C2 (centres unmarked) [HH] | 2.5% | 36.9% | – | – | – | – | 33.3% | – | – | – | –
14 | CN1C2CCC1C1c3ccccc3C(O)(c3cccc(C(F)(F)F)c3)C1C2 (centres unmarked) [NN] | 9.4% | 24.7% | – | – | – | – | – | – | – | 0% | –
15 | CN1C2CCC1C1c3ccccc3C(O)(c3ccccc3C(F)(F)F)C1C2 (centres unmarked) [TT] | 16.7% | 16.1% | – | – | – | – | – | – | – | 0% | 7%
